Experimental data reported in PMC10948969 (Nature cancer, 2023).

Columns and labels:
WNT reporter (TOP-GFP) = experiment: TOP-GFP Wnt reporter in MYC-CTNNB1 organoids; type: cell-based, mouse; settings: 24 h after treatment
[1] = test system: MYC-CTNNB1 tumor organoid allografts; experiment: MYC-CTNNB1 tumor organoid allografts in C57BL/6 mice; type: in vivo, mouse; settings: 30 mg kg−1 daily oral gavage, treatment from 100 mm3
ERK1 = ERK1 (Homo sapiens, UniProt P27361); experiment: In vitro kinase assay with EZH2 T367 peptide, ERK; type: biochemical; settings: inhibitor 1 μM, EZH2 peptide 1 μM
ERK1, sequence (P27361 whole entry): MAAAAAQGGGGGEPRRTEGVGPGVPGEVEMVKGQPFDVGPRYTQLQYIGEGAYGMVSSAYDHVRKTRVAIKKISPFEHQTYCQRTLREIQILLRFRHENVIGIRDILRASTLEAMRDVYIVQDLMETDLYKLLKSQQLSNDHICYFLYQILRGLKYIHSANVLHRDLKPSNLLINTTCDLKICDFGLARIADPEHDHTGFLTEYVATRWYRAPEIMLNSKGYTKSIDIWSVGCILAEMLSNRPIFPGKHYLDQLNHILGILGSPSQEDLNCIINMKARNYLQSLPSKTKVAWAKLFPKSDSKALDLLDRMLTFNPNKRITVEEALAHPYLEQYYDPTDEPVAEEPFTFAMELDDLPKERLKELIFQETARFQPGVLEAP

HEPG2 cells = experiment: Drug toxicity; type: cell-based, human; settings: 3 d
p38 (MAPK14) = p38 (MAPK14) (Homo sapiens, UniProt Q16539); experiment: In vitro kinase assay with EZH2 T367 peptide, p38; type: biochemical; settings: inhibitor 1 μM, EZH2 peptide 1 μM
p38 (MAPK14), sequence (Q16539 whole entry): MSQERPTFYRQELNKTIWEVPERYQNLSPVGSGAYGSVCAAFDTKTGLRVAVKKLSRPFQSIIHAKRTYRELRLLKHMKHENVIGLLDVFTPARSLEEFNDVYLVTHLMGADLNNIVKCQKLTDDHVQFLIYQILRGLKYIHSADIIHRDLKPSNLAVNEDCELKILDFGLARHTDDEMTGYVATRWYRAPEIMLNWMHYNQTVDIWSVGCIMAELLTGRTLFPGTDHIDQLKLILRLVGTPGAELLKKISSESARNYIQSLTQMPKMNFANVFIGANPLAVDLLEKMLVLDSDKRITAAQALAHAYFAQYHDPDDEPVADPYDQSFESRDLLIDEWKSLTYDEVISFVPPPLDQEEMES

[2] = In vivo dose escalation / tolerability in mice
[3] = Single-dose oral pharmacokinetics in BALB/c mice; type: in vivo, mouse
[4] = test system: CTNNB1-mutated HCC (MYC-lucOS; CTNNB1); experiment: Hydrodynamic tail-vein; type: in vivo, mouse; settings: 5 d on and 2 d off
[5] = test system: MYC-Tp53 tumor organoid allografts; experiment: MYC-Tp53 tumor organoid allografts in C57BL/6 mice; type: in vivo, mouse; settings: 30 mg kg−1 daily oral gavage, treatment from 100 mm3
[6] = test system: KIT, PDGFRα/β, VEGFR1/2, RET and FLT3; experiment: Kinome profiling; type: binding; settings: in vitro kinome selectivity profile
[7] = test system: MYC-CTNNB1 tumor organoids; experiment: Drug toxicity; type: cell-based, mouse

CCCc1cc(C)[nH]c(=O)c1CNC(=O)c1cc(-c2ccnc(N3CCN(C)CC3)c2)cc2c1cnn2C(C)C [GSK343]
WNT-driven GFP reporter expression (WNT reporter (TOP-GFP)): neither small molecule (MS1943 or GSK343) dampened the expression of the WNT reporter

Cc1cc(C)c(CNC(=O)c2cc(-c3ccc(N4CCN(CCNC(=O)CC56CC7CC(CC(C7)C5)C6)CC4)nc3)cc3c2cnn3C(C)C)c(=O)[nH]1 [MS1943]
WNT-driven GFP reporter expression (WNT reporter (TOP-GFP)): neither small molecule (MS1943 or GSK343) dampened the expression of the WNT reporter

CNC(=O)c1cc(Oc2ccc(NC(=O)Nc3ccc(C(F)(F)C(F)(F)F)cc3)c(F)c2)ccn1 [WNTinib]
tumor regression [1]: induced significant tumor regression | WNT-driven GFP reporter expression (WNT reporter (TOP-GFP)): the only compound to downregulate WNT-driven GFP expression | inhibition of EZH2 Thr367 peptide phosphorylation by ERK (ERK1): did not inhibit this phosphorylation in vitro | efficacy with drug-resistant p38α (Thr106Met) or BRAF (Thr529Asn) (HEPG2 cells; HEPG2 transduced with gatekeeper mutants vs parental): largely unchanged | activity under MEK overexpression (HEPG2 cells; constitutively active MEK1 (Ser218Asp, Ser222Asp) in HEPG2): effectively eliminated WNTinib activity | shift of IC50 by MKK6 overexpression (HEPG2 cells; constitutively active MKK6 (Ser207Glu, Thr211Glu) vs parental HEPG2): ~ 30 fold | efficacy under activated KIT overexpression (HEPG2 cells; doxycycline-inducible activated KIT double mutant in HEPG2): greatly reduced | inhibition of EZH2 Thr367 peptide phosphorylation by p38 (p38 (MAPK14)): did not inhibit this phosphorylation in vitro | phenotype on extended treatment ([2]; mice treated for >3 weeks, consistent with on-target KIT inhibition): fur depigmentation | signs of sickness or toxicity ([2]; three mouse strains, dosed daily for 2 weeks, oral dose escalation): No mice showed signs of sickness, or evident toxicity in the liver, intestine or kidney | plasma concentration ([3]; 24 h after oral dosing, 20 mg kg−1, BALB/c mice): 7 µM | half-life ([3]; BALB/c mice, oral, 20 mg kg−1): 9.38 h | detectable quantities of drug in blood plasma post-dosing ([3]; oral, 20 mg kg−1): up to 72 h | survival of remaining animals after the final dosing ([4]; 20 mg kg−1 oral): > 300 days | fraction of treatment arm that succumbed to death ([4]; 20 mg kg−1 oral, started 7 d post-injection): 40% | anti-tumor activity [5]: inactive | inhibition of proposed key targets of sorafenib and regorafenib [6]: maintained potent inhibition | IC50 ([7]; read-out: IC50 in MYC-CTNNB1 organoids, without cKit knockdown, treated 3 d): < 1000 nM | combination index (CI) with dabrafenib ([7]; titration of BRAF inhibitor dabrafenib, 3 d, CI > 1 = antagonized): > 1 | combination index (CI) with SCF ([7]; titration of KIT ligand SCF, 3 d, CI >1 = antagonized): > 1 | combination index (CI) with SB202190 ([7]; titration of p38α/β inhibitor SB202190, 3 d, CI > 1 = antagonized): > 1

COc1cc2nccc(Oc3ccc(NC(=O)NC4CC4)c(Cl)c3)c2cc1C(N)=O [lenvatinib]
anti-tumor activity [5]: measurable anti-tumor activity

CNC(=O)c1cc(Oc2ccc(NC(=O)Nc3ccc(Cl)c(C(F)(F)F)c3)c(F)c2)ccn1 [regorafenib]
anti-tumor activity [5]: measurable anti-tumor activity

CNC(=O)c1cc(Oc2ccc(NC(=O)Nc3ccc(Cl)c(C(F)(F)F)c3)cc2)ccn1 [sorafenib, reference compound]
half-life ([3]; female, BALB/c, mouse, plasma, po, 20 mg/kg): 8 h | survival benefit ([4]; 30 mg kg−1 oral, started 7 d post-injection): 7.5 days | anti-tumor activity [5]: measurable anti-tumor activity
